Each block holds one compound with its values, some of them ahead of it.
Key:
Type in all cases: in vivo
Triticum aestivum = settings: 200 g a.i./ha
Procedure: (§1) The experiments were conducted as post applied field trials with plot sizes of 11.25-15 qm, an application volume of 250-300 liter water per hectare and two to three repetitions. Seeds of different crops and various monocot and dicot weeds were either sown or the monocot and dicot weeds were grown naturally and established under common field conditions. The evaluation 13-46 days after application was assessed visually. Treated plants were compared to untreated plants (0-100% scale). In the tables below, GS (growth stage) corresponds to BBCH-code (see for reference Lancashire, P. D.; H. Bleiholder; P. Langeluddecke; R. Stauss; T van den Boom; E. Weber; A. Witzen-Berger (1991). “A uniform decimal code for growth stages of crops and weeds”: Ann. Appl. Biol. 119 (3): 561-601; or Witzenberger, A.; H. Hack; T van den Boom (1989): “Erläuterungen zum BBCH-Dezimal-Code für die Entwicklungsstadien des Getreides—mit Abbildungen”. Gesunde pflanzen 41: 384-388; or Zadoks, J. C., Chang, T T & Konzak, C. F. (1974): A decimal code for the growth stages of cereals. Weed Research 14, 415421)
(§2) The generated values from applications alone and in combination were used to evaluate the combinatorial effects according to S. R. Colby, Weeds 15, pages 20 to 22 (1967).
(§3) The abbreviations have the following meaning: • a.i.=active ingredient • E=Observed combination effect value • EC=Calculated combination effect value according to Colby (EC=A+B−A×B/100) • Diff:=Difference (%) between observed and expected combination effect value (%) (observed minus expected value)

Hordeum vulgare = settings: Table 2; post emergence application GS29, field trial; 200 g a.i./ha; visual, 0-100% scale vs untreated
Procedure: as §1, §2, §3

Centaurea cyanus = test: Post-emergence field trial, herbicidal effect; settings: post emergence application GS18, field trial
Procedure: as §1, §2, §3

Galium aparine = test: Post-emergence field trial, herbicidal effect; settings: post emergence application GS23, field trial
Procedure: as §1, §2, §3

Papaver rhoeas = test: Post-emergence field trial, herbicidal effect; settings: Table 8; post emergence application GS18, field trial; 50 g a.i./ha
Procedure: as §1, §2, §3

- Efficacy/selectivity [%] against Triticum aestivum (Triticum aestivum; Table 1, post emergence application GS30, field trial, visual, 0-100% scale vs untreated): 30%
- Efficacy/selectivty [%] against Triticum aestivum (Triticum aestivum; Table 3, post emergence application GS29, field trial): 18%
- Efficacy/selectivity [%] against Hordeum vulgare (Hordeum vulgare): 32%
Structure (SMILES): CC1(C)CON(Cc2ccc(Cl)cc2Cl)C1=O [COMPOUND I, 2-(2,4-dichlorophenyl)methyl-4,4-dimethyl-3-isoxazolidone]
- Efficacy [%] against Centaurea cyanus (Centaurea cyanus; Table 5, 50 g a.i./ha): 25%
- Efficacy [%] against Centaurea cyanus (Centaurea cyanus; Table 6, 50 g a.i./ha): 25%
- Efficacy [%] against Centaurea cyanus (Centaurea cyanus; Table 9, 100 g a.i./ha): 75%
- Efficacy [%] against Galium aparine (Galium aparine; Table 4, 100 g a.i./ha): 25%
- Efficacy [%] against Galium aparine (Galium aparine; Table 7, 100 g a.i./ha): 0%
- Efficacy [%] against Papaver rhoeas (Papaver rhoeas): 0%

Structure (SMILES): Nc1c([N+](=O)[O-])ccc(Oc2ccccc2)c1Cl [aclonifen, reference compound]
- Efficacy [%] against Centaurea cyanus (Centaurea cyanus; Table 9, 450 g a.i./ha): 0%

Structure (SMILES): CCCCCCCC(=O)Oc1c(Br)cc(C#N)cc1Br [bromoxynil AS octanoate, reference compound]
- Efficacy [%] against Galium aparine (Galium aparine; Table 7, 175 g a.i./ha): 10%

Structure (SMILES): O=C(Nc1ccc(F)cc1F)c1cccnc1Oc1cccc(C(F)(F)F)c1 [diflufenican, reference compound]
- Efficacy [%] against Centaurea cyanus (Centaurea cyanus; Table 6, 75 g a.i./ha): 0%

Structure (SMILES): Nc1c(Cl)c(F)nc(OCC(=O)O)c1Cl [fluroxypyr, reference compound]
- Efficacy [%] against Centaurea cyanus (Centaurea cyanus; Table 5, 150 g a.i./ha): 30%

Structure (SMILES): CSc1nnc(C(C)(C)C)c(=O)n1N [metribuzin, reference compound]
- Efficacy [%] against Papaver rhoeas (Papaver rhoeas): 0%

— patent US10869478B2, “Uses of 2-(2,4-dichlorophenyl)methyl-4,4-dimethyl-3-isoxazolidone as foliar herbicide” (Bayer CropScience Aktiengesellschaft, priority 2015, dated 2020)
